Structures can show the parent of a compound that is named as a salt.
What was measured:
[1] = target: T1, Adrenergic β2 (Homo sapiens, UniProt P07550); assay: Adrenergic β2 mediated cAMP production in H292 cells (AlphaScreen cAMP detection); type: cell-based; conditions: for β2 Int Act: Intrinsic Activity, fraction relative to the maximum activity determined for formoterol; for EC50: cAMP production, 60 min at room temperature, 300 μM rolipram, read-out: β2 pEC50 (converted)
T1 construct: Adherent H292 cells were removed from tissue culture flasks; endogenous in cells; host or cells: H292 cells
Description: H292 cells were grown in 225 cm2 flasks incubator at 37° C., 5% CO2 in RPMI medium containing, 10% (v/v) FBS (foetal bovine serum) and 2 mM L-glutamine.
Adherent H292 cells were removed from tissue culture flasks by treatment with Accutase™ cell detachment solution for 15 min. Flasks were incubated for 15 min in a humidified incubator at 37° C., 5% CO2. Detached cells were re-suspended in RPMI media (containing 10% (v/v) FBS and 2 mM L-glutamine) at […]. 10000 cells in 100 μl were added to each well of a tissue-culture-treated 96-well plate and the cells incubated overnight in a humidified incubator at 37° C., 5% CO2. The culture media was removed and cells were washed twice with 100 μl assay buffer and replaced with 50 μL assay buffer (HBSS solution containing 10 mM HEPES pH7.4 and 5 mM glucose). Cells were rested at room temperature for 20 min after which time 25 μl of rolipram (1.2 mM made up in assay buffer containing 2.4% (v/v) dimethylsulphoxide) was added. Cells were incubated with rolipram for 10 min after which time test compounds were added and the cells were incubated for 60 min at room temperature. The final rolipram concentration in the assay was 300 μM and final vehicle concentration was 1.6% (v/v) dimethylsulphoxide. The reaction was stopped by removing supernatants, washing once with 100 μL assay buffer and replacing with 50 μL lysis buffer. The cell monolayer was frozen at −80° C. for 30 min (or overnight).
AlphaScreen™ cAMP Detection
The concentration of cAMP (cyclic adenosine monophosphate) in the cell lysate was determined using AlphaScreen™ methodology. The frozen cell plate was thawed for 20 min on a plate shaker then 10 μl of the cell lysate was transferred to a 96-well white plate. 40 μL of mixed AlphaScreen™ detection beads pre-incubated with biotinylated cAMP, was added to each well and the plate incubated at room temperature for 10 h in the dark. The AlphaScreen™ signal was measured using an EnVision spectrophotometer (Perkin-Elmer Inc.) with the recommended manufacturer's settings. cAMP concentrations were determined by reference to a calibration curve determined in the same experiment using standard cAMP concentrations. Concentration response curves for agonists were constructed and data was fitted to a four parameter logistic equation to determine both the pEC50 and Intrinsic Activity. Intrinsic Activity was expressed as a fraction relative to the maximum activity determined for formoterol in each experiment.

[2] = target: T2, recombinant human Dopamine Subtype D2s receptors (Homo sapiens, UniProt P14416); assay: Dopamine D2 selectivity binding assay ([3H]-spiperone); conditions: inhibition of [3H]-spiperone binding, human D2s membranes; read-out: D2 bind pIC50 (converted)
T2 construct: purchased Perkin Elmer
Description: (§1) Membranes containing recombinant human Dopamine Subtype D2s receptors were obtained from Perkin Elmer. These were diluted in Assay Buffer (50 mM HEPES, 1 mM EDTA, 120 mM NaCl, 0.1% gelatin, pH 7.4) to provide a final concentration of membranes that gave a clear window between maximum and minimum specific binding.
Assays were performed in U-bottomed 96-well polypropylene plates. 30 μL [^3H]-spiperone (0.16 nM final concentration) and 30 μl of test compound (10× final concentration) were added to each test well. For each assay plate 8 replicates were obtained for [^3H]-spiperone binding in the presence of 30 μL vehicle (10% (v/v) DMSO in Assay Buffer; defining maximum binding) or 30 μl Haloperidol (10 μM final concentration; defining non-specific binding (NSB)). Membranes were then added to achieve a final volume of 300 μL. The plates were incubated for 2 h at room temperature and then filtered onto PEI coated GF/B filter plates, pre-soaked for 1 h in Assay Buffer, using a 96-well plate Tomtec cell harvester. Five washes with 250 μl wash buffer (50 mM HEPES, 1 mM EDTA, 120 mM NaCl, pH 7.4) were performed at 4° C. to remove unbound radioactivity. The plates were dried then sealed from underneath using Packard plate sealers and MicroScint-O (50 μl) was added to each well. The plates were sealed (TopSeal A) and filter-bound radioactivity was measured with a scintillation counter (TopCount, Packard BioScience) using a 3-minute counting protocol.
(§2) Total specific binding (B0) was determined by subtracting the mean NSB from the mean maximum binding. NSB values were also subtracted from values from all other wells. […] Data was fitted to a four parameter logistic equation to determine the compound potency, which was expressed as pIC50 (negative log molar concentration inducing 50% inhibition of [^3H]-spiperone binding).

[3] = target: T3, recombinant human adrenergic beta 1 receptors (Homo sapiens, UniProt P08588); assay: Adrenergic β1 selectivity binding assay ([125I]-Iodocyanopindolol); conditions: inhibition of [125I]-Iodocyanopindolol binding, human β1 membranes; read-out: β1 bind p IC50 (converted)
T3 construct: purchased Euroscreen
Description: as §1, with “adrenergic beta 1” for “Dopamine Subtype D2s”, “Euroscreen.” for “Perkin Elmer.”
Assays were performed in U-bottomed 96-well polypropylene plates. 10 μL [^125I]-Iodocyanopindolol (0.036 nM final concentration) and 10 μL of test compound (10× final concentration) were added to each test well. For each assay plate 8 replicates were obtained for [^125I]-Iodocyanopindolol binding in the presence of 10 μl vehicle (10% (v/v) DMSO in Assay Buffer; defining maximum binding) or 10 μl Propranolol (10 μM final concentration; defining non-specific binding (NSB)). Membranes were then added to achieve a final volume of 100 μL. The plates were incubated for 2 h at room temperature and then filtered onto PEI coated GF/B filter plates, pre-soaked for 1 h in Assay Buffer, using a 96-well plate Tomtec cell harvester. Five washes with 250 μL wash buffer (50 mM HEPES, 1 mM EDTA, 120 mM NaCl, pH 7.4) were performed at 4° C. to remove unbound radioactivity. The plates were dried then sealed from underneath using Packard plate sealers and MicroScint-O (50 μl) was added to each well. The plates were sealed (TopSeal A) and filter-bound radioactivity was measured with a scintillation counter (TopCount, Packard BioScience) using a 3-minute counting protocol.
as §2, with “[^125I]-Iodocyanopindolol” for “[^3H]-spiperone”

T2 sequence (P14416 1-414 isoform P14416-2): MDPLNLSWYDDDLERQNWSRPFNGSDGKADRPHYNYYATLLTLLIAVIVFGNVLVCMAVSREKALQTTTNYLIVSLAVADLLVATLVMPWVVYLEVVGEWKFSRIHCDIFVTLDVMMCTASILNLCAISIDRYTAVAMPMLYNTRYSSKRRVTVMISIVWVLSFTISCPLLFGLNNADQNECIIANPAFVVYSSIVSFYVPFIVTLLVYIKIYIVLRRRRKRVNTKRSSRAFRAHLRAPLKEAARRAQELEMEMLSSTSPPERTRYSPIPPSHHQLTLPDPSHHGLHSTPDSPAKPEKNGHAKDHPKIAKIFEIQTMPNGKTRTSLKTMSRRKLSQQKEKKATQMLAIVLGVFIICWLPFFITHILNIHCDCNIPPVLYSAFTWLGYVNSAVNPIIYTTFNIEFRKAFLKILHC
T1 sequence (P07550 whole entry): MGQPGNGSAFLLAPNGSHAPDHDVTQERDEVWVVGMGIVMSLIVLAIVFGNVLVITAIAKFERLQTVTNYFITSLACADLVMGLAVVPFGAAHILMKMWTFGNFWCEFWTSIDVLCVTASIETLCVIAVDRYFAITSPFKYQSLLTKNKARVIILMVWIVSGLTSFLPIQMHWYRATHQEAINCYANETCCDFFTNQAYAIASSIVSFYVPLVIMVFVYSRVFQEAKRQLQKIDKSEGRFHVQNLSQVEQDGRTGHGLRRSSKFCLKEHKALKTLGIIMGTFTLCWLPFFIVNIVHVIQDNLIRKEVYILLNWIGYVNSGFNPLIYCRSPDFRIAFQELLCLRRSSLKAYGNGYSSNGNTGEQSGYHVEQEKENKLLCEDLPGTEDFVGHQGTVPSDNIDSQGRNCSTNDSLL
T3 sequence (P08588 whole entry): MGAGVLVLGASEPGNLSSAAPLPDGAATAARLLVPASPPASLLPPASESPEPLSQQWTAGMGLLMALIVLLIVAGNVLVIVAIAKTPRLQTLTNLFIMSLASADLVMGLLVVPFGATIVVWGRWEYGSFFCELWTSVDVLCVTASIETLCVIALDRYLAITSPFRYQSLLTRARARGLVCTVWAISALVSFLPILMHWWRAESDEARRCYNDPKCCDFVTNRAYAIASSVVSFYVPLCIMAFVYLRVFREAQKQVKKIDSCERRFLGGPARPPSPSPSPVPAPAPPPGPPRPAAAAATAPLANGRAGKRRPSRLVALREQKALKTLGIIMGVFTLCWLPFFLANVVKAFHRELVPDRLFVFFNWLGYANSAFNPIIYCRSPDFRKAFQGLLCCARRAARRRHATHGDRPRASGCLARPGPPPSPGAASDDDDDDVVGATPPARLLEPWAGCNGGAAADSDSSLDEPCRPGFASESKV

Compound	β2 Int Act [1]	EC50 [1]	IC50 [2]	IC50 [3]
Cn1nnnc1-c1cccc(CCOCCC(=O)N(CCNCCc2ccc(O)c3c2OCC(=O)N3)C2CCCCC2)c1 [Example 08, N-Cyclohexyl-N-(2-(2-(5-hydroxy-3-oxo-3,4-dihydro-2H-benzo[b][1,4]oxazin-8-yl)ethylamino)ethyl)-3-(3-(1-methyl-1H-tetrazol-5-yl)phenethoxy)propanamide Trifluoroacetic Acid Salt]	0.92	15.8 nM	3160 nM	> 10000 nM
CCn1ccnc1-c1cccc(CCOCCC(=O)N(CCNCCc2ccc(O)c3c2OCC(=O)N3)C2CCCCC2)c1 [Example 29, N-Cyclohexyl-3-(3-(1-ethyl-1H-imidazol-2-yl)phenethoxy)-N-(2-(2-(5-hydroxy-3-oxo-3,4-dihydro-2H-benzo[b][1,4]oxazin-8-yl)ethylamino)ethyl)propanamide Trifluoroacetic Acid Salt]	0.90	50.1 nM	2000 nM	> 7940 nM
CCn1cc(-c2cccc(CCOCCC(=O)N(CCNCCc3ccc(O)c4c3OCC(=O)N4)C3CCCC3)c2)cn1 [Example 24, N-Cyclopentyl-3-(3-(1-ethyl-1H-pyrazol-4-yl)phenethoxy)-N-(2-(2-(5-hydroxy-3-oxo-3,4-dihydro-2H-benzo[b][1,4]oxazin-8-yl)ethylamino)ethyl)propanamide Trifluoroacetic Acid Salt]	0.95	7.94 nM	3160 nM	5010 nM
Cn1cc(-c2cccc(CCOCCC(=O)N(CCNCCc3ccc(O)c4c3OCC(=O)N4)C3CCCCC3)c2)nn1 [Example 05, N-Cyclohexyl-N-(2-(2-(5-hydroxy-3-oxo-3,4-dihydro-2H-benzo[b][1,4]oxazin-8-yl)ethylamino)ethyl)-3-(3-(1-methyl-1H-1,2,3-triazol-4-yl)phenethoxy)propanamide Trifluoroacetic Acid Salt]	0.87	7.94 nM	3160 nM	> 7940 nM
O=C1COc2c(CCNCCN(C(=O)CCOCCc3cccc(-c4nn[nH]n4)c3)C3CCCCC3)ccc(O)c2N1 [Example 15, 3-(3-(2H-Tetrazol-5-yl)phenethoxy)-N-cyclohexyl-N-(2-(2-(5-hydroxy-3-oxo-3,4-dihydro-2H-benzo[b][1,4]oxazin-8-yl)ethylamino)ethyl)propanamide Trifluoroacetic Acid Salt]	0.83	12.6 nM	> 10000 nM	> 10000 nM

The remaining lines, values ahead:

β2 Int Act [1]	EC50 [1]	IC50 [2]	IC50 [3]	Compound
0.93	3.16 nM	3980 nM	5010 nM	Cn1cc(-c2cccc(CCOCCC(=O)N(CCNCCc3ccc(O)c4c3OCC(=O)N4)C3CCCCCC3)c2)cn1 [Example 31, N-Cycloheptyl-N-(2-(2-(5-hydroxy-3-oxo-3,4-dihydro-2H-benzo[b][1,4]oxazin-8-yl)ethylamino)ethyl)-3-(3-(1-methyl-1H-pyrazol-4-yl)phenethoxy)propanamide Trifluoroacetic Acid Salt]
0.95	7.94 nM	2510 nM	> 10000 nM	O=C1COc2c(CCNCCN(C(=O)CCOCCc3cccc(-c4c[nH]nn4)c3)C3CCCCC3)ccc(O)c2N1 [Example 14, 3-(3-(1H-1,2,3-Triazol-4-yl)phenethoxy)-N-cyclohexyl-N-(2-(2-(5-hydroxy-3-oxo-3,4-dihydro-2H-benzo[b][1,4]oxazin-8-yl)ethylamino)ethyl)propanamide Trifluoroacetic Acid Salt]
1.00	12.6 nM	2000 nM	6310 nM	Cn1cc(-c2cccc(CCOCCC(=O)N(CCNCCc3ccc(O)c4c3OCC(=O)N4)C3CCCCC3)c2F)cn1 [Example 16, N-Cyclohexyl-3-(2-fluoro-3-(1-methyl-1H-pyrazol-4-yl)phenethoxy)-N-(2-(2-(5-hydroxy-3-oxo-3,4-dihydro-2H-benzo[b][1,4]oxazin-8-yl)ethylamino)ethyl)propanamide Trifluoroacetic Acid Salt]
0.96	12.6 nM	6310 nM	> 10000 nM	CCn1cc(-c2cccc(CCOCCC(=O)N(CCNCCc3ccc(O)c4c3OCC(=O)N4)C3CCCCC3)c2)nn1 [Example 04, N-Cyclohexyl-3-(3-(1-ethyl-1H-1,2,3-triazol-4-yl)phenethoxy)-N-(2-(2-(5-hydroxy-3-oxo-3,4-dihydro-2H-benzo[b][1,4]oxazin-8-yl)ethylamino)ethyl)propanamide Trifluoroacetic Acid Salt]
0.81	10 nM	2510 nM	> 10000 nM	Cn1nccc1-c1cccc(CCOCCC(=O)N(CCNCCc2ccc(O)c3c2OCC(=O)N3)C2CCCCC2)c1 [Example 03, N-Cyclohexyl-N-(2-(2-(5-hydroxy-3-oxo-3,4-dihydro-2H-benzo[b][1,4]oxazin-8-yl)ethylamino)ethyl)-3-(3-(1-methyl-1H-pyrazol-5-yl)phenethoxy)propanamide Trifluoroacetic Acid Salt]
0.91	20 nM	3980 nM	> 10000 nM	CC(C)n1cc(-c2cccc(CCOCCC(=O)N(CCNCCc3ccc(O)c4c3OCC(=O)N4)C3CCCCC3)c2)nn1 [Example 12, N-Cyclohexyl-N-(2-(2-(5-hydroxy-3-oxo-3,4-dihydro-2H-benzo[b][1,4]oxazin-8-yl)ethylamino)ethyl)-3-(3-(1-isopropyl-1H-1,2,3-triazol-4-yl)phenethoxy)propanamide Trifluoroacetic Acid Salt]
